Data from patent US9833497B2, “Human originated EGF domain proteins and use of the same” (CHENGDU SOURCEBIO LIMITED-LIABILITY COMPANY, priority 2013, dated 2017).

Key:
Type in all cases: cell-based
Proteus mirabilis = assay: MIC against Gram-negative bacteria: Proteus mirabilis; conditions: 5×10^5 CFU/mL
Procedure, shortened: (§1)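 The recombinant human-originated EGF domain proteins were serially diluted two-fold against bacteria at 5×10^5 CFU/mL in LB medium. After shaken incubation at 37° C, the lowest concentration with no bacterial growth was recorded as the MIC.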

E. coli DH5α = assay: Antibacterial activity: MIC and growth curve against E. coli DH5α in 96-well plate; conditions: minimal inhibitory concentration against E. coli DH5α; 96-well plate, 5×10^5 CFU/mL, 37° C., judged after 8 h
Procedure, shortened: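 Log-phase bacteria (OD600 ~0.5) resuspended in LB at 5×10^5 CFU/mL, exposed to recombinant protein at 50, 25, 12.5 μg/mL final in triplicate, 37 °C shaking at 175 rpm. OD600 read every 30 min; MIC is lowest concentration showing no growth.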

Proteus vulgaris = assay: MIC against Gram-negative bacteria: Proteus vulgaris; conditions: 5×10^5 CFU/mL
Procedure, shortened: as §1

Citrobacter diversus = assay: MIC against Gram-negative bacteria: Citrobacter diversus; conditions: 5×10^5 CFU/mL
Procedure, shortened: as §1

Moraxella catarrhalis = assay: MIC against Gram-negative bacteria: Moraxella catarrhalis; conditions: 5×10^5 CFU/mL
Procedure, shortened: as §1

Klebsiella pneumonia = assay: MIC against Gram-negative bacteria: Klebsiella pneumonia; conditions: 5×10^5 CFU/mL
Procedure, shortened: as §1

Pseudomonas aeruginosa = assay: MIC against Gram-negative bacteria: Pseudomonas aeruginosa; conditions: 5×10^5 CFU/mL
Procedure, shortened: as §1

Aeromonas hydrophila = assay: MIC against Gram-negative bacteria: Aeromonas hydrophila; conditions: 5×10^5 CFU/mL
Procedure, shortened: as §1

Serratia marcescens = assay: MIC against Gram-negative bacteria: Serratia marcescens; conditions: 5×10^5 CFU/mL
Procedure, shortened: as §1

Enterobacter cloacae = assay: MIC against Gram-negative bacteria: Enterobacter cloacae; conditions: 5×10^5 CFU/mL
Procedure, shortened: as §1

E. coli BL21 = assay: MIC against Gram-negative bacteria: E. coli BL21; conditions: 5×10^5 CFU/mL
Procedure, shortened: as §1

[1] = Proteus mirabilis, 96-well plate, 37° C., 10 h
[2] = Proteus vulgaris, 96-well plate, 37° C., 10 h
[3] = Citrobacter diversus, 96-well plate, 37° C., 10 h
[4] = Moraxella catarrhalis, 96-well plate, 37° C., 10 h
[5] = Klebsiella pneumonia, 96-well plate, 37° C., 10 h
[6] = Pseudomonas aeruginosa, 96-well plate, 37° C., 10 h
[7] = Aeromonas hydrophila, 96-well plate, 37° C., 10 h
[8] = Serratia marcescens, 96-well plate, 37° C., 10 h
[9] = Enterobacter cloacae, 96-well plate, 37° C., 10 h
[10] = E. coli BL21, 96-well plate, 37° C., 10 h
[11] = 10 h cultivation at 37° C., two-fold serial dilution
[12] = P. mirabilis, 10 h cultivation at 37° C.
[13] = P. vulgaris, 10 h cultivation at 37° C.
[14] = C. diversus, 10 h cultivation at 37° C.
[15] = M. catarrhalis, 10 h cultivation at 37° C.
[16] = K. pneumonia, 10 h cultivation at 37° C.
[17] = P. aeruginosa, 10 h cultivation at 37° C.
[18] = A. hydrophila, 10 h cultivation at 37° C.
[19] = S. marcescens, 10 h cultivation at 37° C.
[20] = E. cloacae, 10 h cultivation at 37° C.
[21] = E. coli BL21, 10 h cultivation at 37° C.

Substance: PRT1286 (PKSPCEGTECQNGANCVDQGNRPVCQCLPGFGGPECE; listed as Homo sapiens)
- MIC against P. mirabilis (Proteus mirabilis; [1]): 50 µg/mL
- MIC (E. coli DH5α): 12.5 µg/mL
- MIC against P. vulgaris (Proteus vulgaris; [2]): 25 µg/mL
- MIC against C. diversus (Citrobacter diversus; [3]): 12.5 µg/mL
- MIC against M. catarrhalis (Moraxella catarrhalis; [4]): 25 µg/mL
- MIC against K. pneumonia (Klebsiella pneumonia; [5]): 50 µg/mL
- MIC against P. aeruginosa (Pseudomonas aeruginosa; [6]): 12.5 µg/mL
- MIC against A. hydrophila (Aeromonas hydrophila; [7]): 50 µg/mL
- MIC against S. marcescens (Serratia marcescens; [8]): 12.5 µg/mL
- MIC against E. cloacae (Enterobacter cloacae; [9]): 12.5 µg/mL
- MIC against E. coli BL21 (E. coli BL21; [10]): 50 µg/mL

Substance: PRT1139 (RYNLCDLLHNPCRNNSTCLALVDANQHCICREEFEGKNCE; listed as Homo sapiens)
- MIC P. mirabilis (Proteus mirabilis; [11]): 50 µg/mL
- MIC (E. coli DH5α): 12.5 µg/mL
- MIC P. vulgaris (Proteus vulgaris; [11]): 12.5 µg/mL
- MIC C. diversus (Citrobacter diversus; [11]): 50 µg/mL
- MIC M. catarrhalis (Moraxella catarrhalis; [11]): 12.5 µg/mL
- MIC K. pneumonia (Klebsiella pneumonia; [11]): 25 µg/mL
- MIC P. aeruginosa (Pseudomonas aeruginosa; [11]): 12.5 µg/mL
- MIC A. hydrophila (Aeromonas hydrophila; [11]): 12.5 µg/mL
- MIC S. marcescens (Serratia marcescens; [11]): 25 µg/mL
- MIC E. cloacae (Enterobacter cloacae; [11]): 50 µg/mL
- MIC E. coli BL21 (E. coli BL21; [11]): 25 µg/mL

Substance: PRT171 (CDPSPCKNGGSCTDLENSYSCTCPPGFYGKIC; listed as Homo sapiens)
- MIC (μg/mL) P. mirabilis (Proteus mirabilis; [12]): 25 µg/mL
- MIC (E. coli DH5α): 25 µg/mL
- MIC (μg/mL) P. vulgaris (Proteus vulgaris; [13]): 50 µg/mL
- MIC (μg/mL) C. diversus (Citrobacter diversus; [14]): 25 µg/mL
- MIC (μg/mL) M. catarrhalis (Moraxella catarrhalis; [15]): 12.5 µg/mL
- MIC (μg/mL) K. pneumonia (Klebsiella pneumonia; [16]): 12.5 µg/mL
- MIC (μg/mL) P. aeruginosa (Pseudomonas aeruginosa; [17]): 25 µg/mL
- MIC (μg/mL) A. hydrophila (Aeromonas hydrophila; [18]): 50 µg/mL
- MIC (μg/mL) S. marcescens (Serratia marcescens; [19]): 25 µg/mL
- MIC (μg/mL) E. cloacae (Enterobacter cloacae; [20]): 25 µg/mL
- MIC (μg/mL) E. coli BL21 (E. coli BL21; [21]): 50 µg/mL

Substance: PRT691 (DINECDEAEAASPLCVNARCLNTDGSFRCICRPGFAPTHQPHHCA; listed as Homo sapiens)
- MIC P. mirabilis (Proteus mirabilis; 96-well plate, 37° C., 10 h): 25 µg/mL
- MIC (E. coli DH5α): 25 µg/mL
- MIC P. vulgaris (Proteus vulgaris; 96-well plate, 37° C., 10 h): 50 µg/mL
- MIC C. diversus (Citrobacter diversus; 96-well plate, 37° C., 10 h): 50 µg/mL
- MIC M. catarrhalis (Moraxella catarrhalis; 96-well plate, 37° C., 10 h): 12.5 µg/mL
- MIC K. pneumonia (Klebsiella pneumonia; 96-well plate, 37° C., 10 h): 50 µg/mL
- MIC P. aeruginosa (Pseudomonas aeruginosa; 96-well plate, 37° C., 10 h): 12.5 µg/mL
- MIC A. hydrophila (Aeromonas hydrophila; 96-well plate, 37° C., 10 h): 12.5 µg/mL
- MIC S. marcescens (Serratia marcescens; 96-well plate, 37° C., 10 h): 12.5 µg/mL
- MIC E. cloacae (Enterobacter cloacae; 96-well plate, 37° C., 10 h): 25 µg/mL
- MIC E. coli BL21 (E. coli BL21; 96-well plate, 37° C., 10 h): 50 µg/mL

Substance: PRT71 (VDACHLNPCENMGACVRSPGSPQGYVCECGPSHYGPYCE; listed as Homo sapiens)
- MIC (μg/mL) P. mirabilis (Proteus mirabilis; [1]): 12.5 µg/mL
- MIC (E. coli DH5α): 50 µg/mL
- MIC (μg/mL) P. vulgaris (Proteus vulgaris; [2]): 12.5 µg/mL
- MIC (μg/mL) C. diversus (Citrobacter diversus; [3]): 12.5 µg/mL
- MIC (μg/mL) M. catarrhalis (Moraxella catarrhalis; [4]): 50 µg/mL
- MIC (μg/mL) K. pneumonia (Klebsiella pneumonia; [5]): 25 µg/mL
- MIC (μg/mL) P. aeruginosa (Pseudomonas aeruginosa; [6]): 12.5 µg/mL
- MIC (μg/mL) A. hydrophila (Aeromonas hydrophila; [7]): 25 µg/mL
- MIC (μg/mL) S. marcescens (Serratia marcescens; [8]): 12.5 µg/mL
- MIC (μg/mL) E. cloacae (Enterobacter cloacae; [9]): 50 µg/mL
- MIC (μg/mL) E. coli BL21 (E. coli BL21; [10]): 25 µg/mL

Substance: PRT751 (LCATGDHDCEQVCISSPGSYTCACHEGFTLNSDGKTCN; listed as Homo sapiens)
- MIC (μg/mL) P. mirabilis (Proteus mirabilis; [12]): 50 µg/mL
- MIC (E. coli DH5α): 12.5 µg/mL
- MIC (μg/mL) P. vulgaris (Proteus vulgaris; [13]): 25 µg/mL
- MIC (μg/mL) C. diversus (Citrobacter diversus; [14]): 12.5 µg/mL
- MIC (μg/mL) M. catarrhalis (Moraxella catarrhalis; [15]): 25 µg/mL
- MIC (μg/mL) K. pneumonia (Klebsiella pneumonia; [16]): 12.5 µg/mL
- MIC (μg/mL) P. aeruginosa (Pseudomonas aeruginosa; [17]): 50 µg/mL
- MIC (μg/mL) A. hydrophila (Aeromonas hydrophila; [18]): 25 µg/mL
- MIC (μg/mL) S. marcescens (Serratia marcescens; [19]): 12.5 µg/mL
- MIC (μg/mL) E. cloacae (Enterobacter cloacae; [20]): 50 µg/mL
- MIC (μg/mL) E. coli BL21 (E. coli BL21; [21]): 25 µg/mL
